System: ACC (acetyl-CoA carboxylase)
Assay: p-ACC expression level in L6 cell line by Western blot
Assay type: cell-based
Details: Rattus norvegicus, L6 cells, 2 hours compound treatment, read-out: Activity AC1.3 (ACCp)
Method: (§1) Evaluation of p-AMPK and p-ACC expression level in L6 cell line by Western-Blot
(§2) This method evaluates the changes of AMP-activated protein kinase (AMPK) and ACC (acetyl-CoA carboxylase) activity by small molecular modulators through detecting the level of p-AMPK and p-ACC proteins in L6 cells using Western blot.
(§3) L6 cells are maintained in DMEM medium supplemented with 10% FBS in 10-cm dishes. Prior to compounds treatment, L6 cells are seeded in 12-well-plates at concentration of 3×10^4 cells per well. After 24 hours of incubation in 12-well plates, L6 cells are differentiated by replacing the 10% FBS-DMEM medium with 2% FBS-DMEM. Differentiation usually takes 5 days, during which the culture medium is changed every 2 days.
(§4) The compound concentrations typically range from 32 μM to 0.5 μM with 2-fold dilution in 2 ml DMEM and 7 doses. The final DMSO concentration is 0.4%. Berberine is used as a positive control at concentration of 16 μM. Before compound treatment, starve L6 cells for 2 hours by replacing the medium with DMEM, and then gently aspirate the media from each well. Add the compounds into the plates and incubate at 37 degree 5% CO2 for 2 hours.
(§5) Prepare lysis buffer (RIPA buffer with protease-inhibitors and phosphorate-inhibitors) and place it on ice. After two hour's compound treatment, aspirate the medium from 12-well plates, add 70 ul lysis buffer to each well and keep the plates on ice for 5 min. Then scrape the cell lysate off the plates and transfer it to 1.5 ml eppendorf tubes. Keep the tube on ice for more 10 min, centrifugate the lysate at 13000 rpm, 4 degrees for 15 min and transfer the supernatant to clean tubes.
(§6) Determine protein concentration for each sample using Quickstart Bradford protein quantitation kit. Mix 20 ug protein sample with 4 times loading buffer, heat them at 100° C. for 5 min, store the sample in −80° C. or perform Western blot assay directly. For Western blot assay, load 20 ug samples and 10 ul Pre-stained Protein Maker into 4-12% SDS-PAGE gradient gel. Run the samples at 100 V in the stacking gel and at 120 V in resolving gel until the Bromophenol dye reaches the bottom. Transfer the electrophoresed proteins to a PVDF membrane using Bio-Rad's Transblot for 120 min at 300 mA. Following the completion of transfer, the membrane is blocked with 5% non-fat milk for 2 hours at room temperature before incubated with primary antibody (p-AMPK and p-ACC) at 4° C. overnight. On the next day wash the membrane twice with TBST, add secondary antibody and incubate for 1 hour at room temperature. Wash the membrane twice with TBST. Develop p-AMPK and p-ACC protein expression level on the film in dark room with Amersham ECL plus kit. The bands of each sample are quantitated by Bio-Rad system, The AC1.3 value is analyzed using Prism 5.0.

Q: Which EC (1.3-fold) does the source give for `CC1(C)CC(c2cccc(N3CCOCC3)c2)Nc2ccc(C(=O)NS(=O)(=O)C3CC3)cc21` (centres unmarked) [Example 1, Cyclopropanesulfonic acid [4,4-dimethyl-2-(3-morpholin-4-yl-phenyl)-1,2,3,4-tetrahydro-quinoline-6-carbonyl]-amide] here?
A: 1.4 µM

Q: For `CC1(C)CC(c2cc(F)cc(N3CCOCC3)c2)Nc2ccc(C(=O)NS(=O)(=O)C3CC3)cc21` (centres unmarked) [Example 6, Cyclopropanesulfonic acid [2-(3-fluoro-5-morpholin-4-yl-phenyl)-4,4-dimethyl-1,2,3,4-tetrahydro-quinoline-6-carbonyl]-amide], which EC (1.3-fold) is on record?
A: 3.5 µM

Q: For `CC1(c2ccccc2)CC(c2ccc(F)c(Cl)c2)Nc2ccc(C(=O)NS(C)(=O)=O)cc21` (centres unmarked) [Example 7, N-[2-(3-chloro-4-fluoro-phenyl)-4-methyl-4-phenyl-1,2,3,4-tetrahydro-quinoline-6-carbonyl]-methanesulfonamide], which EC (1.3-fold) is on record?
A: < 16 µM

Q: Which EC (1.3-fold) does the source give for `CCCS(=O)(=O)NC(=O)c1ccc2c(c1)C(C)(C)CC(c1ccc(F)c(Cl)c1)N2` (centres unmarked) [Example 8, Propane-1-sulfonic acid [2-(3-chloro-4-fluoro-phenyl)-4,4-dimethyl-1,2,3,4-tetrahydro-quinoline-6-carbonyl]-amide] here?
A: < 32 µM

Q: For `CC(C)S(=O)(=O)NC(=O)c1ccc2c(c1)C(C)(C)CC(c1cccc(N3CCOCC3)c1)N2` (centres unmarked) [Example 9, Propane-2-sulfonic acid [4,4-dimethyl-2-(3-morpholin-4-yl-phenyl)-1,2,3,4-tetrahydro-quinoline-6-carbonyl]-amide], which EC (1.3-fold) is on record?
A: 4.5 µM

Q: Which EC (1.3-fold) does the source give for `CC1(C)CC(c2cccc(N3CCOCC3)c2)Nc2c(C(=O)NS(C)(=O)=O)cccc21` (centres unmarked) [Example 10, N-[4,4-dimethyl-2-(3-morpholin-4-yl-phenyl)-1,2,3,4-tetrahydro-quinoline-8-carbonyl]-methanesulfonamide] here?
A: < 0.2 µM

Q: With `CC1(C)CC(c2cccc(N3CCOCC3)c2)Nc2c(C(=O)NS(=O)(=O)C3CC3)cccc21` (centres unmarked) [Example 11, Cyclopropanesulfonic acid [4,4-dimethyl-2-(3-morpholin-4-yl-phenyl)-1,2,3,4-tetrahydro-quinoline-8-carbonyl]-amide] as the compound, how does the EC (1.3-fold) read?
A: 0.3 µM

Q: For `CC(C)NS(=O)(=O)c1ccc2c(c1)C(C)(C)CC(c1cccc(N3CCOCC3)c1)N2` (centres unmarked) [Example 13, 4,4-Dimethyl-2-(3-morpholin-4-yl-phenyl)-1,2,3,4-tetrahydro-quinoline-6-sulfonic acid isopropylamide], which EC (1.3-fold) is on record?
A: 0.4 µM

Q: `CC1(C)CC(c2cccc(N3CCNCC3)c2)Nc2ccc(S(=O)(=O)N3CCOCC3)cc21` (centres unmarked) [Example 14, 4,4-Dimethyl-6-(morpholine-4-sulfonyl)-2-(3-piperazin-1-yl-phenyl)-1,2,3,4-tetrahydro-quinoline] was tested. Which EC (1.3-fold) did it give?
A: 4.7 µM

Q: How did the EC (1.3-fold) turn out when `CC1(C)CC(c2cccc(C(F)(F)F)c2)Nc2ccc(C(=O)NS(C)(=O)=O)cc21` (centres unmarked) [Example 30, N-[4,4-dimethyl-2-(3-trifluoromethyl-phenyl)-1,2,3,4-tetrahydro-quinoline-6-carbonyl]-methanesulfonamide] was run?
A: 0.002 µM

Q: `CC1(C)CC(c2cccc(C(F)(F)F)c2)Nc2ccc(C(=O)NS(=O)(=O)C3CC3)cc21` (centres unmarked) [Example 31, Cyclopropanesulfonic acid [4,4-dimethyl-2-(3-trifluoromethyl-phenyl)-1,2,3,4-tetrahydro-quinoline-6-carbonyl]-amide] was tested. Which EC (1.3-fold) did it give?
A: 2 µM

Q: `CC(C)(C)c1ccc(-c2cccc(C3CC(C)(C)c4cc(C(=O)NS(C)(=O)=O)ccc4N3)c2)cc1` (centres unmarked) [Example 39, N-[2-(4′-tert-butyl-biphenyl-3-yl)-4,4-dimethyl-1,2,3,4-tetrahydro-quinoline-6-carbonyl]-methanesulfonamide] was tested. Which EC (1.3-fold) did it give?
A: 1.4 µM

Q: How did the EC (1.3-fold) turn out when `CC1(C)CC(c2cccc(-c3nnnn3C3CC3)c2)Nc2ccc(C(=O)NS(=O)(=O)C3CC3)cc21` (centres unmarked) [Example 41, Cyclopropanesulfonic acid {2-[3-(1-cyclopropyl-1H-tetrazol-5-yl)-phenyl]-4,4-dimethyl-1,2,3,4-tetrahydro-quinoline-6-carbonyl}-amide] was run?
A: 1.16 µM

Q: Which EC (1.3-fold) does the source give for `CC(C)Oc1ccc(-c2cccc(C3CC(C)(C)c4cc(C(=O)NS(C)(=O)=O)ccc4N3)c2)cc1` (centres unmarked) [Example 45, N-[2-(4′-isopropoxy-biphenyl-3-yl)-4,4-dimethyl-1,2,3,4-tetrahydro-quinoline-6-carbonyl]-methanesulfonamide] here?
A: < 8 µM

Q: How did the EC (1.3-fold) turn out when `CC(C)Oc1ccc(-c2cccc(C3CC(C)(C)c4cc(C(=O)NS(=O)(=O)C5CC5)ccc4N3)c2)cc1` (centres unmarked) [Example 46, Cyclopropanesulfonic acid [2-(4′-isopropoxy-biphenyl-3-yl)-4,4-dimethyl-1,2,3,4-tetrahydro-quinoline-6-carbonyl]-amide] was run?
A: < 8 µM

Q: Which EC (1.3-fold) does the source give for `CCc1ccc(N2CCOCC2)cc1C1CC(C)(C)c2cc(C(=O)NS(=O)(=O)C3CC3)ccc2N1` (centres unmarked) [Example 47, Cyclopropanesulfonic acid [2-(2-ethyl-5-morpholin-4-yl-phenyl)-4,4-dimethyl-1,2,3,4-tetrahydro-quinoline-6-carbonyl]-amide] here?
A: 62.4 µM

Q: With `CC1(C)CC(c2cccc(N3CCOCC3)c2)Nc2cc(C(=O)NS(C)(=O)=O)ccc21` (centres unmarked) [Example 55, N-[4,4-dimethyl-2-(3-morpholin-4-yl-phenyl)-1,2,3,4-tetrahydro-quinoline-7-carbonyl]-methanesulfonamide] as the compound, how does the EC (1.3-fold) read?
A: 0.7 µM

Q: How did the EC (1.3-fold) turn out when `CC1(C)CC(c2cccc(N3CCN(c4ccccc4F)CC3)c2)Nc2c(C(=O)NS(=O)(=O)C3CC3)cc(F)cc21` (centres unmarked) [Example 60, Cyclopropanesulfonic acid (6-fluoro-2-{3-[4-(2-fluoro-phenyl)-piperazin-1-yl]-phenyl}-4,4-dimethyl-1,2,3,4-tetrahydro-quinoline-8-carbonyl)-amide] was run?
A: 7.33 µM

Q: With `CC1(C)CC(c2cccc(N3CCOCC3)c2)Nc2c(C(=O)NS(C)(=O)=O)cc(Cl)cc21` (centres unmarked) [Example 62, N-[6-chloro-4,4-dimethyl-2-(3-morpholin-4-yl-phenyl)-1,2,3,4-tetrahydro-quinoline-8-carbonyl]-methanesulfonamide] as the compound, how does the EC (1.3-fold) read?
A: 68 µM

Q: How did the EC (1.3-fold) turn out when `CC1(C)CC(c2cccc(N3CCOCC3)c2)Nc2c(C(=O)NS(=O)(=O)C3CC3)cc(Cl)cc21` (centres unmarked) [Example 63, Cyclopropanesulfonic acid [6-chloro-4,4-dimethyl-2-(3-morpholin-4-yl-phenyl)-1,2,3,4-tetrahydro-quinoline-8-carbonyl]-amide] was run?
A: 5.2 µM

System: AMP-activated protein kinase (AMPK)
Assay: p-AMPK expression level in L6 cell line by Western blot
Assay type: cell-based
Details: L6 cells, 2 hours compound treatment
Method: as §1, §2, §3, §4, §5, §6

Q: With `CC(C)(Nc1cccc(C2CC(C)(C)c3cc(S(=O)(=O)N4CCOCC4)ccc3N2)c1)C(=O)O` (centres unmarked) [Example 82, 2-{3-[4,4-Dimethyl-6-(morpholine-4-sulfonyl)-1,2,3,4-tetrahydro-quinolin-2-yl]-phenylamino}-2-methyl-propionic acid] as the compound, how does the “Activity AC1.3 (AMPKp)” value read?
A: 0.02 µM

Q: For `CC1(C)CC(c2cccc(NC3(C(=O)O)CC3)c2)Nc2ccc(S(=O)(=O)N3CCOCC3)cc21` (centres unmarked) [Example 83, 1-{3-[4,4-Dimethyl-6-(morpholine-4-sulfonyl)-1,2,3,4-tetrahydro-quinolin-2-yl]-phenylamino}-cyclopropanecarboxylic acid], which “Activity AC1.3 (AMPKp)” value is on record?
A: 0.01 µM

Q: For `CC1(C)CC(c2cccc(NC3(C(=O)O)CC3)c2)Nc2ccc(S(=O)(=O)NC3CCC3)cc21` (centres unmarked) [Example 84, 1-[3-(6-Cyclobutylsulfamoyl-4,4-dimethyl-1,2,3,4-tetrahydro-quinolin-2-yl)-phenylamino]-cyclopropanecarboxylic acid], which “Activity AC1.3 (AMPKp)” value is on record?
A: 0.2 µM

Q: How did the “Activity AC1.3 (AMPKp)” value turn out when `CC(C)(Nc1cccc(C2CC(C)(C)c3cc(S(=O)(=O)NC4CCC4)ccc3N2)c1)C(=O)O` (centres unmarked) [Example 85, 2-[3-(6-Cyclobutylsulfamoyl-4,4-dimethyl-1,2,3,4-tetrahydro-quinolin-2-yl)-phenylamino]-2-methyl-propionic acid] was run?
A: 0.03 µM

Q: How did the “Activity AC1.3 (AMPKp)” value turn out when `CC(C)(Nc1cc(F)cc(C2CC(C)(C)c3cc(S(=O)(=O)NC4CCC4)ccc3N2)c1)C(=O)O` (centres unmarked) [Example 86, 2-[3-(6-Cyclobutylsulfamoyl-4,4-dimethyl-1,2,3,4-tetrahydro-quinolin-2-yl)-5-fluoro-phenylamino]-2-methyl-propionic acid] was run?
A: 0.003 µM

Q: For `CC1(C)CC(c2cc(F)cc(NC3(C(=O)O)CC3)c2)Nc2ccc(S(=O)(=O)NC3CCC3)cc21` (centres unmarked) [Example 87, 1-[3-(6-Cyclobutylsulfamoyl-4,4-dimethyl-1,2,3,4-tetrahydro-quinolin-2-yl)-5-fluoro-phenylamino]-cyclopropanecarboxylic acid], which “Activity AC1.3 (AMPKp)” value is on record?
A: 0.002 µM

Source: patent publication US8809369B2, “Tetrahydroquinoline derivatives” (Hoffmann-La Roche Inc., priority 2011, dated 2014)
